Results on 4 molecules are retold here after ChEMBL document CHEMBL1126710, “A new candidate for an anti-HIV-1 agent: modified cyclodextrin sulfate (mCDS71)” (J Med Chem, 1993).

Test [1] relates to Human immunodeficiency virus 1. The test can be described thus: Tested against HIV-1 replication of KK-1AIDS strain in peripheral blood mononuclear cells (value obtained in the presence of 20% FCS). The class given is functional, organism-based.
Test [2] is described as follows: (§1) Tested for cytopathic effect caused by KK-1AIDS strain in MT-4 cells in the presence of human serum. The class given is functional, cell-based. Particulars: MT4, Serum.
Test [3] in a line: Tested for anticoagulation effect by Zuchker's activated partial thromboplastin time (APTT) method. The test is classed as functional.
The subject of test [4] is MT4. The test can be described thus: Tested against HIV-1 induced cytopathic effect in MT-4 cells on LAV-1 strain. The class given is functional, Homo sapiens. For orientation: Damage to the host cells serves as the signal in cytopathic effect assays.
The subject of test [5] is MT4. Nature of the test: Tested for appearance of MT-4 cell toxicity after 5 days of incubation. The class given is functional. Particulars: Homo sapiens, MT4, 120 h; read-out: TD50 (the source's name).
Test [6] relates to MT4. The test can be described thus: Tested against HIV-1 induced cytopathic effect in MT-4 cells on KK-1AIDS (strain clinically isolated from an AIDS patient). The test is classed as functional, Homo sapiens.
A further test concerns MOLT-4. Nature of the test: Tested for the suppressive effect on giant cell formation in MOLT-4 and MOLT-4/HIV LAV-1 cells (value obtained in the presence of 10% FCS). The class given is functional, cell-based. The note with it: Homo sapiens.
The nature of test [7]: (§2) Tested for cytopathic effect caused by LAV-1 strain in MT-4 cells in the presence of human serum. The class given is functional, cell-based. The note with it: MT4, Serum.
Test [8] has as its system MT4. The test is described as §1. The class given is functional, cell-based.
Test [9] has as its system MT4. Described as §2. The test is classed as functional, cell-based.

The structures appear in SMILES notation. Where only a bound is given, the exact number is not on record here.

`O=S(=O)([O-])OC[C@@H]1O[C@@H]2O[C@H]3[C@H](OS(=O)(=O)[O-])[C@H](OCc4ccccc4)[C@@H](O[C@H]4[C@H](OS(=O)(=O)[O-])[C@H](OCc5ccccc5)[C@@H](O[C@H]5[C@H](OS(=O)(=O)[O-])[C@H](OCc6ccccc6)[C@@H](O[C@H]6[C@H](OS(=O)(=O)[O-])[C@H](OCc7ccccc7)[C@@H](O[C@H]7[C@H](OS(=O)(=O)[O-])[C@H](OCc8ccccc8)C(O[C@H]8[C@H](OS(=O)(=O)[O-])[C@H](OCc9ccccc9)C(O[C@H]1[C@H](OS(=O)(=O)[O-])[C@@H]2OCc1ccccc1)O[C@H]8COS(=O)(=O)[O-])O[C@H]7COS(=O)(=O)[O-])O[C@H]6COS(=O)(=O)[O-])O[C@H]5COS(=O)(=O)[O-])O[C@H]4COS(=O)(=O)[O-])O[C@H]3COS(=O)(=O)[O-].[Na+].[Na+].[Na+].[Na+].[Na+].[Na+].[Na+].[Na+].[Na+].[Na+].[Na+].[Na+].[Na+].[Na+]`: the IC50 in test [1] was determined as 3.6 µg/mL; in test [2] it was 5.8 µg/mL; in the test with MOLT-4, 0.46 µg/mL; in test [7], 0.87 µg/mL. The APTT in test [3] came to 14.8 µg/mL. For the same molecule, the IC100 in the test on MT4 [4] and in the test with MT4 [6] was 0.98 µg/mL in each case. For the same molecule, in the test with MT4 [5], the CC50 amounted to 1000 µg/mL.

Turning to `O=S(=O)([O-])OCC1O[C@H]2O[C@@H]3C(COS(=O)(=O)[O-])O[C@H](O[C@@H]4C(COS(=O)(=O)[O-])O[C@H](O[C@@H]5C(COS(=O)(=O)[O-])O[C@H](O[C@@H]6C(COS(=O)(=O)[O-])O[C@@H](O[C@@H]7C(COS(=O)(=O)[O-])O[C@H](O[C@@H]8C(COS(=O)(=O)[O-])O[C@H](O[C@H]1C(OS(=O)(=O)[O-])C2O)C(OCc1ccccc1)C8OS(=O)(=O)[O-])C(O)C7OS(=O)(=O)[O-])C(OCc1ccccc1)C6OS(=O)(=O)[O-])C(OS(=O)(=O)[O-])C5OS(=O)(=O)[O-])C(OCc1ccccc1)C4OS(=O)(=O)[O-])C(OS(=O)(=O)[O-])C3OS(=O)(=O)[O-].[Na+].[Na+].[Na+].[Na+].[Na+].[Na+].[Na+].[Na+].[Na+].[Na+].[Na+].[Na+].[Na+].[Na+].[Na+].[Na+]` (some centres undefined), the APTT in [3] is 4 µg/mL. Besides, the results for the IC100 in the test with MT4 [4] and with MT4 [6] were 1.95 µg/mL and 3.9 µg/mL, respectively. The CC50 in the test with MT4 [5] was above 1000 µg/mL.

In test [3], `O=S(=O)([O-])OC[C@@H]1O[C@@H]2O[C@H]3[C@H](OS(=O)(=O)[O-])[C@H](O)[C@@H](O[C@H]4[C@H](OS(=O)(=O)[O-])[C@H](O)[C@@H](O[C@H]5[C@H](OS(=O)(=O)[O-])[C@H](O)[C@@H](O[C@H]6[C@H](OS(=O)(=O)[O-])[C@H](O)[C@@H](O[C@H]7[C@H](OS(=O)(=O)[O-])[C@H](O)C(O[C@H]8[C@H](OS(=O)(=O)[O-])[C@H](O)C(O[C@H]1[C@H](OS(=O)(=O)[O-])[C@@H]2O)O[C@H]8COS(=O)(=O)[O-])O[C@H]7COS(=O)(=O)[O-])O[C@H]6COS(=O)(=O)[O-])O[C@H]5COS(=O)(=O)[O-])O[C@H]4COS(=O)(=O)[O-])O[C@H]3COS(=O)(=O)[O-].[K+].[K+].[K+].[K+].[K+].[K+].[K+].[K+].[K+].[K+].[K+].[K+].[K+].[K+]` gave an APTT of 2.8 µg/mL. For the same molecule, the IC100 with MT4 [4] stood at 31.26 µg/mL; with MT4 [6], 125 µg/mL. For the same molecule, the CC50 in the test with MT4 [5] is above 1000 µg/mL.

As to `O=S(=O)([O-])OCC1O[C@H]2O[C@@H]3C(CSCc4ccccc4)O[C@H](O[C@@H]4C(COS(=O)(=O)[O-])O[C@H](O[C@@H]5C(COS(=O)(=O)[O-])O[C@@H](O[C@@H]6C(CSCc7ccccc7)O[C@H](O[C@@H]7C(COS(=O)(=O)[O-])O[C@H](O[C@@H]8C(CSCc9ccccc9)O[C@H](O[C@H]1C(O)C2OS(=O)(=O)[O-])C(OS(=O)(=O)[O-])C8OS(=O)(=O)[O-])C(OS(=O)(=O)[O-])C7OS(=O)(=O)[O-])C(OS(=O)(=O)[O-])C6OS(=O)(=O)[O-])C(O)C5OS(=O)(=O)[O-])C(OS(=O)(=O)[O-])C4OS(=O)(=O)[O-])C(OS(=O)(=O)[O-])C3OS(=O)(=O)[O-].[K+].[K+].[K+].[K+].[K+].[K+].[K+].[K+].[K+].[K+].[K+].[K+].[K+].[K+].[K+].[K+]` (some centres undefined), the half-maximal inhibitory concentration (IC50) in test [1] stood at 6.5 µg/mL; in the test with MT4 [8], 11 µg/mL; in the test with MOLT-4 it was 2 µg/mL; with MT4 [9], 4.5 µg/mL. The molecule further returned an APTT in test [3] of 7.1 µg/mL. In addition, the IC100 in the test with MT4 [4] amounted to 0.98 µg/mL; in the test on MT4 [6] it was 1.95 µg/mL. Besides, in the test with MT4 [5], the CC50 was above 1000 µg/mL.

Usually IC50 stands for the concentration needed to halve the response being measured.
